Source: PMC10609429, “Crystal Structure and Intermolecular Energy for Some Nandrolone Esters” (Molecules, 2023)
≈ marks a conversion by molar mass, not a printed value. Where “and” joins values, the source holds several entries; their conditions need not be identical. Identical values can stand only once. Like-named read-outs stand apart in the source and are kept apart here.

Key:
[1] = Solubility evaluation of nandrolone esters in oil / benzyl benzoate / benzyl alcohol mixtures; type: physicochemical; details: 24 °C, oil or lipid, thermodynamic from solid
Description: From a pharmaceutical standpoint, the solubility of esterified agents (mg/mL) plays an important role in drug development and delivery. In this context, the solubilities were evaluated in multiple mixtures based on various organic oils: medium-chain triglyceride (MCT), apricot, grape seed oil (GSO) and cottonseed oil. Each solution contains a mixture of benzyl alcohol, benzyl benzoate and oil with a volumetric ratio of 2% benzyl alcohol, 20% benzyl benzoate and the rest of 78% oil.
Solubility evaluation was accomplished at a room temperature of 24 °C in successive additions of small quantities of raw materials (a few mg each step). The mixtures were stirred for up to several hours in order to achieve a completely dissolved solution. In the case that an undissolved excess of raw materials remained in the suspension, small quantities of mixtures were added until the solutions became perfectly homogenous and clear. Two measurements were performed in order to attain a good accuracy; their average was further discussed.

[2] = design: method as in PMID 28522428; details: two polymorphs, respectively; ambient temperature of 20 °C; mixtures of castor oil; cited from earlier work
[3] = design: method as in PMID 817322; details: oral vs subcutaneous; cited from earlier work
[4] = unesterified nandrolone; cited from earlier work
[5] = analogue esters of testosterone; cited from earlier work
[6] = average over the four oil mixtures (apricot, GSO, MCT, cottonseed), read-out: Solubility (average)
[7] = medium-chain triglyceride mixture: 2% benzyl alcohol, 20% benzyl benzoate, 78% oil (v/v), room temperature 24 °C, average of two measurements, read-out: Solubility, MCT
[8] = apricot oil / benzyl benzoate / benzyl alcohol mixture, apricot oil mixture: 2% benzyl alcohol, 20% benzyl benzoate, 78% oil (v/v), room temperature 24 °C, average of two measurements, read-out: Solubility, APRICOT
[9] = cottonseed oil / benzyl benzoate / benzyl alcohol mixture, cottonseed oil mixture: 2% benzyl alcohol, 20% benzyl benzoate, 78% oil (v/v), room temperature 24 °C, average of two measurements, read-out: Solubility, COTTON
[10] = grape seed oil / benzyl benzoate / benzyl alcohol mixture, grape seed oil mixture: 2% benzyl alcohol, 20% benzyl benzoate, 78% oil (v/v), room temperature 24 °C, average of two measurements, read-out: Solubility, GSO

| SMILES | solubility [1, 6] [mg/mL] | solubility [1, 7] [mg/mL] | solubility [1, 8] [mg/mL] | solubility [1, 9] [mg/mL] | solubility [1, 10] [mg/mL] | also measured |
| --- | --- | --- | --- | --- | --- | --- |
| C[C@]12CC[C@H]3[C@@H](CCC4=CC(=O)CC[C@@H]43)[C@@H]1CC[C@@H]2OC(=O)CCc1ccccc1 [NPhp, Nandrolone phenylpropionate] | ~138 (≈ 339 mM) | 148 (≈ 365 mM) | 127 (≈ 313 mM) | 140 (≈ 345 mM) | 137 (≈ 336 mM) |  |
| CCC(=O)OC1CCC2C3CCC4=CC(=O)CCC4C3CCC12C (centres unmarked) [NPro, Nandrolone propionate] | ~188 (≈ 569 mM) | 187 (≈ 566 mM) | 181 (≈ 548 mM) | 180 (≈ 544 mM) | 204 (≈ 619 mM) |  |
| CCCCCCCCCCC(=O)OC1CCC2C3CCC4=CC(=O)CCC4C3CCC12C (centres unmarked) [NUnd, Nandrolone undecanoate] | ~192 (≈ 433 mM) | 211 (≈ 478 mM) | 183 (≈ 413 mM) | 199 (≈ 450 mM) | 173 (≈ 391 mM) |  |
| CCCCCC(=O)O[C@]1(C(C)=O)CC[C@H]2[C@@H]3CCC4=CC(=O)CC[C@]4(C)[C@H]3CC[C@@]21C [hydroxyprogesterone caproate] |  |  |  |  |  | solubility [2]: 278 mg/mL and 301 mg/mL |
| C[C@]12CC[C@H]3[C@@H](CCC4=CC(=O)CC[C@@H]43)[C@@H]1CC[C@@H]2O [nandrolone, Estr-4-en-17β-ol-3-one] |  |  |  |  |  | Potency of the oral form compared with subcutaneous administration [3]: one-tenth; Half-life [4]: a few hours |
| C[C@]12CC[C@H]3[C@@H](CCC4=CC(=O)CC[C@@]43C)[C@@H]1CC[C@@H]2OC(=O)CCC1CCCC1 [testosterone cypionate] |  |  |  |  |  | solubility [5]: 255 mg/mL (≈ 618 mM) |
| CCCCCCCCCCC(=O)O[C@H]1CC[C@H]2[C@@H]3CCC4=CC(=O)CC[C@]4(C)[C@H]3CC[C@]12C [undecanoate ester of testosterone] |  |  |  |  |  | solubility [5]: 197 mg/mL (≈ 431 mM) |
